Experimental data reported in PubChem BioAssay (NCI).
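GI50: concentration for 50% inhibition of growth. TGI: total growth inhibition.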

Legend:
Experiment in all cases: NCI tumour cell line growth inhibition, 384-well format
[1] = system: HCC-2998 colon
[2] = system: HOP-92 NSCLC
[3] = system: A549 NSCLC
[4] = system: HCT-15 colon
[5] = system: UACC-62 melanoma
[6] = system: MCF7 breast
[7] = system: HCT-116 colon
[8] = system: RXF 393 renal
[9] = system: MALME-3M melanoma
[10] = system: NCI-H23 lung
[11] = system: SF-268 CNS
[12] = system: RPMI-8226 leukemia
[13] = system: NCI-H322M lung
[14] = system: T-47D breast
[15] = system: LOX IMVI melanoma
[16] = system: HOP-62 NSCLC
[17] = system: UACC-257 melanoma
[18] = system: SN12C renal
[19] = system: DU-145 prostate
[20] = system: UO-31 renal
[21] = system: OVCAR-4 ovarian
[22] = system: SF-295 CNS
[23] = system: PC-3 prostate
[24] = system: NCI-H522 lung
[25] = system: MDA-MB-468 breast
[26] = system: U251 glioblastoma
[27] = system: NCI-H226 lung
[28] = system: SK-OV-3 ovarian
[29] = system: SW-620 colon
[30] = system: 786-0 renal
[31] = system: OVCAR-8 ovarian
[32] = system: IGROV1 ovarian
[33] = system: SNB-19 CNS
[34] = system: SK-MEL-28 melanoma
[35] = system: M14 melanoma
[36] = system: OVCAR-5 ovarian
[37] = system: A498 renal
[38] = system: COLO 205 colon
[39] = system: NCI-H460 NSCLC
[40] = system: CCRF-CEM leukemia
[41] = system: CAKI-1 renal
[42] = system: SR leukemia
[43] = system: NCI/ADR-RES ovarian
[44] = system: HL-60(TB) leukemia
[45] = system: SK-MEL-2 melanoma
[46] = system: TK-10 renal
[47] = system: HT29 colon
[48] = system: SK-MEL-5 melanoma
[49] = system: K-562 leukemia
[50] = system: MOLT-4 leukemia
[51] = system: MDA-MB-435 melanoma
[52] = system: BT-549 breast
[53] = system: KM12 colon
[54] = system: ACHN renal
[55] = system: MDA-MB-231 breast
[56] = system: OVCAR-3 ovarian
[57] = system: SF-539 CNS

Compound `CCN1[C@@H](C(=O)NC23CCC(C(=O)O)(CC2)CC3)[C@H](c2cccc(Cl)c2F)[C@]2(C(=O)Nc3cc(Cl)ccc32)C12CCCCC2` has a GI50 [1] of 1270 nM, a TGI [1] of 2910 nM and a GI50 [2] of 1770 nM. The TGI [2] was 4.43 µM, the GI50 [3] was 45.2 nM and the TGI [3] was 1140 nM. The GI50 [4] was 2660 nM, the TGI [4] was 10.1 µM and the GI50 [5] was under 10 nM. The TGI [5] was 364 nM, the GI50 [6] was 26.9 nM and the TGI [6] was 1120 nM. The GI50 [7] was 30.3 nM, the TGI [7] was 1490 nM and the GI50 [8] was 1020 nM. It also gave a TGI [8] of 2560 nM, a GI50 [9] of 14 nM and a TGI [9] of 659 nM. It also gave a GI50 [10] of 1490 nM, a TGI [10] of 3.95 µM and a GI50 [11] of 2340 nM. The TGI [11] was 6.8 µM, the GI50 [12] was 1260 nM and the TGI [12] was 2510 nM. The GI50 [13] was 3.87 µM, the TGI [13] was 15.1 µM and the GI50 [14] was 1620 nM. It also gave a TGI [14] of 6.27 µM, a GI50 [15] of 323 nM and a TGI [15] of 1840 nM. It also gave a GI50 [16] of 1590 nM, a TGI [16] of 4.19 µM and a GI50 [17] of 148 nM. It also gave a TGI [17] of 431 nM, a GI50 [18] of 3.53 µM and a TGI [18] of 12.7 µM. The GI50 [19] was 3.39 µM, the TGI [19] was 12.3 µM and the GI50 [20] was 19.3 nM. For the same compound, the TGI [20] was 161 nM, the GI50 [21] was 2220 nM and the TGI [21] was 7.32 µM. For the same compound, the GI50 [22] was 1240 nM, the TGI [22] was 2670 nM and the GI50 [23] was 2880 nM. It also gave a TGI [23] of 9.4 µM, a GI50 [24] of 2410 nM and a TGI [24] of 6.92 µM. It also gave a GI50 [25] of 1700 nM, a TGI [25] of 3.61 µM and a GI50 [26] of 3.07 µM. For the same compound, the TGI [26] was 11.5 µM, the GI50 [27] was under 10 nM and the TGI [27] was 81.7 nM. For the same compound, the GI50 [28] was 2960 nM, the TGI [28] was 13.7 µM and the GI50 [29] was 3.79 µM. It also gave a TGI [29] of 13.4 µM, a GI50 [30] of 3.49 µM and a TGI [30] of 13.5 µM. It also gave a GI50 [31] of 3000 nM, a TGI [31] of 11.4 µM and a GI50 [32] of 244 nM. For the same compound, the TGI [32] was 2770 nM, the GI50 [33] was 3.09 µM and the TGI [33] was 12.8 µM. It also gave a GI50 [34] of 2760 nM, a TGI [34] of 7.42 µM and a GI50 [35] of 35 nM. The TGI [35] was 2370 nM, the GI50 [36] was 1920 nM and the TGI [36] was 4.66 µM. It also gave a GI50 [37] of 13.6 nM, a TGI [37] of 1090 nM and a GI50 [38] of 2200 nM. It also gave a TGI [38] of 4.46 µM, a GI50 [39] of 29.4 nM and a TGI [39] of 1080 nM. It also gave a GI50 [40] of 1420 nM, a TGI [40] of 2750 nM and a GI50 [41] of under 10 nM. The TGI [41] was 418 nM, the GI50 [42] was under 10 nM and the GI50 [43] was 3.64 µM. The TGI [43] was 13.6 µM, the GI50 [44] was 2030 nM and the TGI [44] was 3.46 µM. For the same compound, the GI50 [45] was 638 nM, the TGI [45] was 2160 nM and the GI50 [46] was 2890 nM. The TGI [46] was 11.4 µM, the GI50 [47] was 3.52 µM and the TGI [47] was 13.9 µM. It also gave a GI50 [48] of 239 nM, a TGI [48] of 1810 nM and a GI50 [49] of 2830 nM. The TGI [49] was 11 µM, the GI50 [50] was under 10 nM and the GI50 [51] was 2260 nM. For the same compound, the TGI [51] was 5.65 µM, the GI50 [52] was 1930 nM and the TGI [52] was 6.16 µM. The GI50 [53] was 2870 nM, the TGI [53] was 9.12 µM and the GI50 [54] was 19.4 nM. The TGI [54] was 390 nM, the GI50 [55] was 3.13 µM and the TGI [55] was 14.2 µM. The GI50 [56] was 1440 nM, the TGI [56] was 2900 nM and the GI50 [57] was 2120 nM. The TGI [57] was 5.19 µM.
